Values after ≈ are worked out from the molar mass of the structure shown. Like-named read-outs stand apart in the source and are kept apart here. Where a SMILES comes first, the peptide text is derived from it. [ ]: non-standard residue; d: D form. ξ: configuration not given here. Oic = O=C(O)[C@@H]1C[C@@H]2CCCC[C@@H]2N1; Tic = O=C(O)[C@@H]1Cc2ccccc2CN1; ξTic = O=C(O)C1Cc2ccccc2CN1; ξOic = O=C(O)C1CC2CCCCC2N1; βAla = NCCC(=O)O
How the values were obtained:
[1] = in vitro; details: mouse, microsomes, pH 7.4
[2] = in vitro; details: human, microsomes, pH 7.4
[3] = test system: Salmonella typhimurium (ATCC 13311); details: for MIC Salmonella typhimurium: ATCC 13311
[4] = test system: Bacillus subtillis (ATCC 43223); details: for MIC Bacillus Subtillis: ATCC 43223
[5] = Maximum tolerated dose in mouse model; format: in vivo; details: IP, dosed daily day 1-6
Protocol: Maximum Tolerated Dose: Six compounds were evaluated in an in vivo mouse model to determine the maximum tolerated dose for each compound by BIOCON, Inc. using the following protocol. For each compound 3 dose concentrations (1/5/25 mg/kg or 5/25/125 mg/kg) were administered IP, 1-2 times per day as split doses. Day 0 weigh the animals, day 1-6 dose daily and observe animals, day 7 weigh, euthanasia followed by necrotize to examine abdominal cavity.

[6] = in vitro; details: rat, microsomes, pH 7.4
[7] = in vitro; details: dog, microsomes, pH 7.4
[8] = in vitro; details: monkey, microsomes, pH 7.4
[9] = test system: red blood cells
[10] = test system: Staphylococcus aureus Methicillin/Gentamicin/Tetracycline Resistant (ATCC 33592); details: for Minimum Inhibitory Concentration Staphylococcus aureus ME/GM/TC resistant: in vitro MIC, tested at 100, 30, 10, 3, 1, 0.3 and 0.1 μM in 1% DMSO
[11] = test system: Mycobacterium ranae (ATCC 110)
[12] = test system: B. melitensis 16M
[13] = Metabolic stability, dog liver microsomes
[14] = Metabolic stability, mouse liver microsomes
[15] = test system: red blood cells; experiment: Hemolytic studies
[16] = Metabolic stability, monkey liver microsomes
[17] = Metabolic stability, human liver microsomes; details: for % remaining at time T, Human Liver: 0.5 mg/mL microsomes
[18] = Metabolic stability, rat liver microsomes
[19] = test system: F. tularensis SCHU-S4
[20] = test system: Plasmodium falciparum W2 (CDC Indochina III chloroquine, quinine, pyrimethamine and sulfadoxine-resistant)
[21] = test system: Plasmodium falciparum D6 (CDC Sierra Leone, mefloquine resistant)
[22] = Minimal Inhibitory Concentration, tested at 100-0.1 in 1% DMSO
[23] = liver microsomes, 1 μM, T = 60 min

## CC(=O)NCC(=O)N1Cc2ccccc2CC1C(=O)N1C(C(=O)N[C@@H](CCCCN)C(=O)N2Cc3ccccc3CC2C(=O)N2C(C(=O)NCC(=O)N3Cc4ccccc4CC3C(=O)N3C(C(=O)N[C@@H](CCCCN)C(=O)N4Cc5ccccc5CC4C(=O)N[C@@H](CCCCN)C(=O)N[C@@H](CCCCN)C(=O)N[C@@H](CCCCN)C(=O)N[C@@H](CCCCN)C(N)=O)CC4CCCCC43)CC3CCCCC32)CC2CCCCC21 (stereo partly drawn) [FKAB-1Ge, Ac-G-Tic-Oic-K-Tic-Oic-G-Tic-Oic-K-Tic-KKKK-CONH2] (Ac-G[ξTic][ξOic]K[ξTic][ξOic]G[ξTic][ξOic]K[ξTic]KKKK-NH2)
[1]
  remaining at 0.25 h, 1 μM: 85%
  remaining at 0.5 h, 1 μM: 20%
  remaining at 1 h, 1 μM: 11%
[2]
  remaining at 0.25 h, 1 μM: 114%
[3]
  MIC Salmonella typhimurium: 0.01 mM (≈ 0.0203 mg/mL)
[4]
  MIC Bacillus Subtillis: 0.001 mM (≈ 0.00203 mg/mL)
[5]
  Maximum Tolerated Dose/Toxicity 1 mg/kg: no observed toxicity
[6]
  remaining at 0.25 h, 1 μM: 69%
  remaining at 0.5 h, 1 μM: 73%
  remaining at 1 h, 1 μM: 95%
[7]
  remaining at 0.5 h, 1 μM: 43%
  remaining at 1 h, 1 μM: 54%
[8]
  remaining at 0.25 h, 1 μM: 56%
  remaining at 0.5 h, 1 μM: 73%
[9]
  % hemolysis 100/25 μM (first value): 26.7%/
  % hemolysis 100/25 μM (second value): 9.2%
[10]; [22]
  MIC Staphylococcus aureus ME/GM/TC resistant: 0.01 mM (≈ 0.0203 mg/mL)
[10]
  Minimum Inhibitory Concentration Staphylococcus aureus ME/GM/TC resistant: 10 µM
[11]; ATCC 110
  MIC Mycobacterium ranae: 0.003 mM (≈ 0.0061 mg/mL)

## CC(=O)NCCC(=O)N[C@@H](Cc1ccccc1)C(=O)N1Cc2ccccc2CC1C(=O)N1C(C(=O)NCCC(=O)N[C@@H](CCCCN)C(=O)N2Cc3ccccc3CC2C(=O)N2C(C(=O)NCCC(=O)N[C@@H](Cc3ccccc3)C(=O)N3Cc4ccccc4CC3C(=O)N3C(C(=O)NCCC(=O)N[C@@H](CCCCN)C(=O)N4Cc5ccccc5CC4C(=O)N[C@@H](CCCCN)C(=O)N[C@@H](CCCCN)C(=O)N[C@@H](CCCCN)C(=O)N[C@@H](CCCCN)C(N)=O)CC4CCCCC43)CC3CCCCC32)CC2CCCCC21 (stereo partly drawn) [FKAB-1Gd1, Ac-βAla-F-Tic-Oic-βAla-K-Tic-Oic-βAla-F-Tic-Oic-βAla-K-Tic-KKKK-CONH2] (Ac-[βAla]F[ξTic][ξOic][βAla]K[ξTic][ξOic][βAla]F[ξTic][ξOic][βAla]K[ξTic]KKKK-NH2)
[12]
  Minimum Inhibitory Concentration B. melitensis 16M: >500 µg/mL
[3]
  MIC Salmonella typhimurium: 0.01 mM (≈ 0.025 mg/mL)
[13]; T = 15 min, 1 μM, 0.5 mg/mL microsomes
  % remaining, Dog Liver T = 15: 84%
[13]; dog, microsomes, pH 7.4
  remaining at 0.5 h, 1 μM: 78%
  remaining at 1 h, 1 μM: 71%
[13]; [23]
  metabolic stability T = 60 min dog: Moderate
[4]
  MIC Bacillus Subtillis: 0.001 mM (≈ 0.0025 mg/mL)
[5]; 125 mg/kg
  Maximum Tolerated Dose/Toxicity 125 mg/kg: 5 out 5 animals died
[14]; [23]
  metabolic stability T = 60 min mouse: moderate
[14]; mouse, microsomes, pH 7.4
  remaining at 0.25 h, 1 μM: 90%
  remaining at 0.5 h, 1 μM: 64%
  remaining at 1 h, 1 μM: 53%
[15]; 100 μM
  % hemolysis 100/25 μM (first value): 24.4%/
[16]; [23]
  metabolic stability T = 60 min monkey: high
[16]; monkey, microsomes, pH 7.4
  remaining at 0.25 h, 1 μM: 90%
  remaining at 0.5 h, 1 μM: 87%
  remaining at 1 h, 1 μM: 89%
[17]; human, microsomes, pH 7.4
  remaining at 0.25 h, 1 μM: 94%
[17]; [23]
  metabolic stability T = 60 min human: high
[17]; second human column (T = 30 min, head not given), 1 μM
  % remaining at time T, Human Liver: 99%
[17]; third human column (T = 60 min, head not given), 1 μM
  % remaining at time T, Human Liver: 97%
[18]; [23]
  metabolic stability T = 60 min rat: high
[18]; rat, microsomes, pH 7.4
  remaining at 0.25 h, 1 μM: 82%
  remaining at 0.5 h, 1 μM: 79%
  remaining at 1 h, 1 μM: 92%
[19]
  Minimum Inhibitory Concentration F. tularensis SCHU-S4: 500 µg/mL
[10]; ATCC 33592
  MIC Staphylococcus aureus ME/GM/TC resistant: 0.01 mM (≈ 0.025 mg/mL)
[11]; ATCC 110
  MIC Mycobacterium ranae: 0.001 mM (≈ 0.0025 mg/mL)
  Minimum Inhibitory Concentration Mycobacterium ranae: 1 µM

## CC(C)C[C@H](NC(=O)CNC(=O)[C@H](CCCCN)NC(=O)CN)C(=O)N1Cc2ccccc2C[C@H]1C(=O)N1[C@H](C(=O)NCC(=O)N[C@@H](CCCNC(=N)N)C(=O)N2Cc3ccccc3C[C@H]2C(=O)N2[C@H](C(=O)NCC(=O)N[C@@H](Cc3ccccc3)C(=O)N3Cc4ccccc4C[C@H]3C(=O)N3[C@H](C(=O)NCC(=O)N[C@@H](CCCNC(=N)N)C(=O)N4Cc5ccccc5C[C@H]4C(=O)N4[C@H](C(=O)NCC(=O)N[C@@H](Cc5ccccc5)C(=O)N5Cc6ccccc6C[C@H]5C(=O)N5[C@H](C(=O)NCC(=O)N[C@@H](CCCNC(=N)N)C(=O)N6Cc7ccccc7C[C@H]6C(=O)N6[C@H](C(=O)NCC(=O)N[C@@H](CCCCN)C(=O)N[C@@H](CCCNC(=N)N)C(N)=O)C[C@@H]7CCCC[C@@H]76)C[C@@H]6CCCC[C@@H]65)C[C@@H]5CCCC[C@@H]54)C[C@@H]4CCCC[C@@H]43)C[C@@H]3CCCC[C@@H]32)C[C@@H]2CCCC[C@@H]21 [WRFK-2, NH2-GKGL-Tic-Oic-GR-Tic-Oic-GF-Tic-Oic-GR-Tic-Oic-GF-Tic-Oic-GR-Tic-Oic-GKR-CONH2] (H-GKGL[Tic][Oic]GR[Tic][Oic]GF[Tic][Oic]GR[Tic][Oic]GF[Tic][Oic]GR[Tic][Oic]GKR-NH2)
[20]
  IC50 * W2: 6.9 µg/mL (≈ 1.9 µM)
[3]; -log(MIC)
  p(MIC) Salmonella typhimurium: 4.00
[3]
  MIC Salmonella typhimurium: 0.1 mM (≈ 0.362 mg/mL)
[4]; -log(MIC)
  p(MIC) Bacillus Subtillis: 6.00
[4]
  MIC Bacillus Subtillis: 0.001 mM (≈ 0.00362 mg/mL)
[15]; concentration not given
  % hemolysis / Hemolytic activity: 100%
[21]
  IC50 * D6: 7.2 µg/mL (≈ 1.99 µM)
[10]; -log(MIC)
  p(MIC) Staphylococcus aureus ME/GM/TC resistant: 5.00
[10]; [22]
  MIC Staphylococcus aureus ME/GM/TC resistant: 0.01 mM (≈ 0.0362 mg/mL)
[10]
  Minimum Inhibitory Concentration Staphylococcus aureus ME/GM/TC resistant: 10 µM
[10]; p(MIC) used in Staphylococcus aureus QSAR model
  Actual Bioactivity: 5.000
[11]
  Actual Bioactivity: 0.000
  MIC Mycobacterium ranae: 1000 mM (≈ 3620 mg/mL)
  Minimum Inhibitory Concentration Mycobacterium ranae: not active

## CC(C)C[C@H](NC(=O)[C@@H](N)CCCCN)C(=O)N1Cc2ccccc2CC1C(=O)N1C(C(=O)NCC(=O)N[C@@H](CCCCN)C(=O)N2Cc3ccccc3CC2C(=O)N2C(C(=O)NCC(=O)N[C@@H](Cc3ccccc3)C(=O)N3Cc4ccccc4CC3C(=O)N3C(C(=O)NCC(=O)N[C@@H](CCCCN)C(=O)N4Cc5ccccc5CC4C(=O)N[C@@H](CCCCN)C(=O)N[C@@H](CCCCN)C(=O)N[C@@H](CCCCN)C(=O)N[C@@H](CCCCN)C(N)=O)CC4CCCCC43)CC3CCCCC32)CC2CCCCC21 (stereo partly drawn) [FKAB-1Gb, NH2--KL-Tic-Oic-GK-Tic-Oic-GF-Tic-Oic-GK-Tic-KKKK-CONH2] (H-KL[ξTic][ξOic]GK[ξTic][ξOic]GF[ξTic][ξOic]GK[ξTic]KKKK-NH2)
[1]
  remaining at 0.25 h, 1 μM: 87%
  remaining at 0.5 h, 1 μM: 73%
  remaining at 1 h, 1 μM: 70%
[2]
  remaining at 0.25 h, 1 μM: 98%
[3]
  MIC Salmonella typhimurium: 0.003 mM (≈ 0.00731 mg/mL)
[4]
  MIC Bacillus Subtillis: 0.001 mM (≈ 0.00244 mg/mL)
[5]
  Maximum Tolerated Dose/Toxicity 1 mg/kg: no observed toxicity
[6]
  remaining at 0.25 h, 1 μM: 84%
  remaining at 0.5 h, 1 μM: 84%
  remaining at 1 h, 1 μM: 91%
[7]
  remaining at 0.5 h, 1 μM: 99%
  remaining at 1 h, 1 μM: 81%
[8]
  remaining at 0.25 h, 1 μM: 86%
  remaining at 0.5 h, 1 μM: 87%
  remaining at 1 h, 1 μM: 97%
[9]
  % hemolysis 100/25 μM (first value): 43.6%/
  % hemolysis 100/25 μM (second value): 24.9%
[10]; [22]
  MIC Staphylococcus aureus ME/GM/TC resistant: 0.03 mM (≈ 0.0731 mg/mL)
[10]
  Minimum Inhibitory Concentration Staphylococcus aureus ME/GM/TC resistant: 30 µM
[11]; ATCC 110
  MIC Mycobacterium ranae: 0.003 mM (≈ 0.00731 mg/mL)
  Minimum Inhibitory Concentration Mycobacterium ranae: 3 µM

Source: patent US20120197004A1, “NOVEL ANTI-MICROBIAL PEPTIDOMIMETIC COMPOUNDS AND METHODS TO CALCULATE ANTI-MICROBIAL ACTIVITY” (priority 2006, published 2012)
